Converted amounts (≈) assume the structure as drawn.
Key:
Assay type in all cases: functional
[1] = tested on: Mycobacterium tuberculosis; assay: Antituberculosis activity against Mycobacterium tuberculosis H37Rv assessed as growth inhibition after 12 to 28 days by L-J MIC method; conditions: for MIC: Mycobacterium tuberculosis, H37Rv
Candida albicans [2] = assay: Antimicrobial activity against Candida albicans MTCC 183 assessed as growth inhibition after 48 hr by agar streak dilution method; conditions: MTCC 183, 48 h
Aspergillus clavatus [3] = assay: Antimicrobial activity against Aspergillus clavatus MTCC 1323 assessed as growth inhibition after 48 hr by agar streak dilution method; conditions: MTCC 1323, 48 h
Aspergillus fumigatus [4] = assay: Antimicrobial activity against Aspergillus fumigatus MTCC 343 assessed as growth inhibition after 48 hr by agar streak dilution method; conditions: MTCC 343, 48 h
Aspergillus niger [5] = assay: Antimicrobial activity against Aspergillus niger MTCC 282 assessed as growth inhibition after 48 hr by agar streak dilution method; conditions: MTCC 282, 48 h
Shigella flexneri [6] = assay: Antimicrobial activity against Shigella flexneri MTCC1457 assessed as growth inhibition after 24 hr by agar streak dilution method; conditions: MTCC1457, 24 h
Proteus vulgaris [7] = assay: Antimicrobial activity against Proteus vulgaris MTCC 1771 assessed as growth inhibition after 24 hr by agar streak dilution method; conditions: MTCC 1771, 24 h
Salmonella typhi [8] = assay: Antimicrobial activity against Salmonella enterica subsp. enterica serovar Typhi MTCC 733 assessed as growth inhibition after 24 hr by agar streak dilution method; conditions: MTCC 733, 24 h
Klebsiella pneumoniae [9] = assay: Antimicrobial activity against Klebsiella pneumoniae MTCC 109 assessed as growth inhibition after 24 hr by agar streak dilution method; conditions: MTCC 109, 24 h
Pseudomonas aeruginosa [10] = assay: Antimicrobial activity against Pseudomonas aeruginosa MTCC 741 assessed as growth inhibition after 24 hr by agar streak dilution method; conditions: MTCC 741, 24 h
Escherichia coli [11] = assay: Antimicrobial activity against Escherichia coli MTCC 739 assessed as growth inhibition after 24 hr by agar streak dilution method; conditions: MTCC 739, 24 h
Bacillus cereus [12] = assay: Antimicrobial activity against Bacillus cereus MTCC 430 assessed as growth inhibition after 24 hr by agar streak dilution method; conditions: MTCC 430, 24 h
Staphylococcus aureus [13] = assay: Antimicrobial activity against Staphylococcus aureus MTCC 96 assessed as growth inhibition after 24 hr by agar streak dilution method; conditions: MTCC 96, 24 h
Candida albicans [14] = assay: Antimicrobial activity against Candida albicans MTCC 183 assessed as diameter of growth inhibition zone after 48 hr
Aspergillus clavatus [15] = assay: Antimicrobial activity against Aspergillus clavatus MTCC 1323 assessed as diameter of growth inhibition zone after 48 hr
Aspergillus fumigatus [16] = assay: Antimicrobial activity against Aspergillus fumigatus MTCC 343 assessed as diameter of growth inhibition zone after 48 hr
Aspergillus niger [17] = assay: Antimicrobial activity against Aspergillus niger MTCC 282 assessed as diameter of growth inhibition zone after 48 hr
Shigella flexneri [18] = assay: Antimicrobial activity against Shigella flexneri MTCC1457 assessed as diameter of growth inhibition zone after 24 hr
Proteus vulgaris [19] = assay: Antimicrobial activity against Proteus vulgaris MTCC 1771 assessed as diameter of growth inhibition zone after 24 hr
Salmonella typhi [20] = assay: Antimicrobial activity against Salmonella enterica subsp. enterica serovar Typhi MTCC 733 assessed as diameter of growth inhibition zone after 24 hr
Klebsiella pneumoniae [21] = assay: Antimicrobial activity against Klebsiella pneumoniae MTCC 109 assessed as diameter of growth inhibition zone after 24 hr
Pseudomonas aeruginosa [22] = assay: Antimicrobial activity against Pseudomonas aeruginosa MTCC 741 assessed as diameter of growth inhibition zone after 24 hr
Escherichia coli [23] = assay: Antimicrobial activity against Escherichia coli MTCC 739 assessed as diameter of growth inhibition zone after 24 hr
Bacillus cereus [24] = assay: Antimicrobial activity against Bacillus cereus MTCC 430 assessed as diameter of growth inhibition zone after 24 hr
Staphylococcus aureus [25] = assay: Antimicrobial activity against Staphylococcus aureus MTCC 96 assessed as diameter of growth inhibition zone after 24 hr

## O=C(/C=C/c1ccc(Cl)cc1Cl)c1ccc(Nc2cc(=O)oc3ccccc23)cc1
[1]
  growth inhibition (GI): 95%
  MIC: 1000 µg/mL (≈ 2290 µM)
Candida albicans [2]
  MIC: 100 µg/mL (≈ 229 µM)
Aspergillus clavatus [3]
  MIC: 100 µg/mL (≈ 229 µM)
Aspergillus fumigatus [4]
  MIC: 50 µg/mL (≈ 115 µM)
Aspergillus niger [5]
  MIC: 100 µg/mL (≈ 229 µM)
Shigella flexneri [6]
  MIC: 100 µg/mL (≈ 229 µM)
Proteus vulgaris [7]
  MIC: 50 µg/mL (≈ 115 µM)
Salmonella typhi [8]
  MIC: 50 µg/mL (≈ 115 µM)
Klebsiella pneumoniae [9]
  MIC: 100 µg/mL (≈ 229 µM)
Pseudomonas aeruginosa [10]
  MIC: 100 µg/mL (≈ 229 µM)
Escherichia coli [11]
  MIC: 100 µg/mL (≈ 229 µM)
Bacillus cereus [12]
  MIC: 50 µg/mL (≈ 115 µM)
Staphylococcus aureus [13]
  MIC: 25 µg/mL (≈ 57.3 µM)
Candida albicans [14]
  diameter of the inhibition zone (DIZ): 12 mm
Aspergillus clavatus [15]
  diameter of the inhibition zone (DIZ): 14 mm
Aspergillus fumigatus [16]
  diameter of the inhibition zone (DIZ): 17 mm
Aspergillus niger [17]
  diameter of the inhibition zone (DIZ): 15 mm
Shigella flexneri [18]
  diameter of the inhibition zone (DIZ): 13 mm
Proteus vulgaris [19]
  diameter of the inhibition zone (DIZ): 19 mm
Salmonella typhi [20]
  diameter of the inhibition zone (DIZ): 17 mm
Klebsiella pneumoniae [21]
  diameter of the inhibition zone (DIZ): 16 mm
Pseudomonas aeruginosa [22]
  diameter of the inhibition zone (DIZ): <10 mm
Escherichia coli [23]
  diameter of the inhibition zone (DIZ): 14 mm
Bacillus cereus [24]
  diameter of the inhibition zone (DIZ): 16 mm
Staphylococcus aureus [25]
  diameter of the inhibition zone (DIZ): 20 mm

## COc1ccc(-c2cc(-c3ccc(Nc4cc(=O)oc5ccccc45)cc3)nc(N)c2C#N)cc1
[1]
  growth inhibition (GI): 96%
  MIC: 62.5 µg/mL (≈ 136 µM)
Candida albicans [2]
  MIC: 12.5 µg/mL (≈ 27.1 µM)
Aspergillus clavatus [3]
  MIC: 6.25 µg/mL (≈ 13.6 µM)
Aspergillus fumigatus [4]
  MIC: 12.5 µg/mL (≈ 27.1 µM)
Aspergillus niger [5]
  MIC: 12.5 µg/mL (≈ 27.1 µM)
Shigella flexneri [6]
  MIC: 12.5 µg/mL (≈ 27.1 µM)
Proteus vulgaris [7]
  MIC: 6.25 µg/mL (≈ 13.6 µM)
Salmonella typhi [8]
  MIC: 12.5 µg/mL (≈ 27.1 µM)
Klebsiella pneumoniae [9]
  MIC: 12.5 µg/mL (≈ 27.1 µM)
Pseudomonas aeruginosa [10]
  MIC: 6.25 µg/mL (≈ 13.6 µM)
Escherichia coli [11]
  MIC: 3.12 µg/mL (≈ 6.78 µM)
Bacillus cereus [12]
  MIC: 6.25 µg/mL (≈ 13.6 µM)
Staphylococcus aureus [13]
  MIC: 6.25 µg/mL (≈ 13.6 µM)
Candida albicans [14]
  diameter of the inhibition zone (DIZ): 25 mm
Aspergillus clavatus [15]
  diameter of the inhibition zone (DIZ): 25 mm
Aspergillus fumigatus [16]
  diameter of the inhibition zone (DIZ): 21 mm
Aspergillus niger [17]
  diameter of the inhibition zone (DIZ): 25 mm
Shigella flexneri [18]
  diameter of the inhibition zone (DIZ): 24 mm
Proteus vulgaris [19]
  diameter of the inhibition zone (DIZ): 26 mm
Salmonella typhi [20]
  diameter of the inhibition zone (DIZ): 22 mm
Klebsiella pneumoniae [21]
  diameter of the inhibition zone (DIZ): 22 mm
Pseudomonas aeruginosa [22]
  diameter of the inhibition zone (DIZ): 25 mm
Escherichia coli [23]
  diameter of the inhibition zone (DIZ): 28 mm
Bacillus cereus [24]
  diameter of the inhibition zone (DIZ): 27 mm
Staphylococcus aureus [25]
  diameter of the inhibition zone (DIZ): 27 mm

## N#Cc1c(-c2ccc(Cl)cc2)cc(-c2ccc(Nc3cc(=O)oc4ccccc34)cc2)nc1N
[1]
  growth inhibition (GI): 98%
  MIC: 100 µg/mL (≈ 215 µM)
Candida albicans [2]
  MIC: 6.25 µg/mL (≈ 13.4 µM)
Aspergillus clavatus [3]
  MIC: 25 µg/mL (≈ 53.8 µM)
Aspergillus fumigatus [4]
  MIC: 12.5 µg/mL (≈ 26.9 µM)
Aspergillus niger [5]
  MIC: 25 µg/mL (≈ 53.8 µM)
Shigella flexneri [6]
  MIC: 12.5 µg/mL (≈ 26.9 µM)
Proteus vulgaris [7]
  MIC: 6.25 µg/mL (≈ 13.4 µM)
Salmonella typhi [8]
  MIC: 12.5 µg/mL (≈ 26.9 µM)
Klebsiella pneumoniae [9]
  MIC: 6.25 µg/mL (≈ 13.4 µM)
Pseudomonas aeruginosa [10]
  MIC: 50 µg/mL (≈ 108 µM)
Escherichia coli [11]
  MIC: 25 µg/mL (≈ 53.8 µM)
Bacillus cereus [12]
  MIC: 25 µg/mL (≈ 53.8 µM)
Staphylococcus aureus [13]
  MIC: 12.5 µg/mL (≈ 26.9 µM)
Candida albicans [14]
  diameter of the inhibition zone (DIZ): 26 mm
Aspergillus clavatus [15]
  diameter of the inhibition zone (DIZ): 21 mm
Aspergillus fumigatus [16]
  diameter of the inhibition zone (DIZ): 24 mm
Aspergillus niger [17]
  diameter of the inhibition zone (DIZ): 20 mm
Shigella flexneri [18]
  diameter of the inhibition zone (DIZ): 23 mm
Proteus vulgaris [19]
  diameter of the inhibition zone (DIZ): 26 mm
Salmonella typhi [20]
  diameter of the inhibition zone (DIZ): 24 mm
Klebsiella pneumoniae [21]
  diameter of the inhibition zone (DIZ): 25 mm
Pseudomonas aeruginosa [22]
  diameter of the inhibition zone (DIZ): 19 mm
Escherichia coli [23]
  diameter of the inhibition zone (DIZ): 21 mm
Bacillus cereus [24]
  diameter of the inhibition zone (DIZ): 21 mm
Staphylococcus aureus [25]
  diameter of the inhibition zone (DIZ): 24 mm

## CC(=O)N1N=C(c2ccc(Nc3cc(=O)oc4ccccc34)cc2)CC1c1ccccc1O (centres undefined)
[1]
  growth inhibition (GI): 98%
  MIC: 250 µg/mL (≈ 569 µM)
Candida albicans [2]
  MIC: 100 µg/mL (≈ 228 µM)
Aspergillus clavatus [3]
  MIC: 50 µg/mL (≈ 114 µM)
Aspergillus fumigatus [4]
  MIC: 25 µg/mL (≈ 56.9 µM)
Aspergillus niger [5]
  MIC: 50 µg/mL (≈ 114 µM)
Shigella flexneri [6]
  MIC: 50 µg/mL (≈ 114 µM)
Proteus vulgaris [7]
  MIC: 100 µg/mL (≈ 228 µM)
Salmonella typhi [8]
  MIC: 100 µg/mL (≈ 228 µM)
Klebsiella pneumoniae [9]
  MIC: 50 µg/mL (≈ 114 µM)
Pseudomonas aeruginosa [10]
  MIC: 100 µg/mL (≈ 228 µM)
Escherichia coli [11]
  MIC: 100 µg/mL (≈ 228 µM)
Bacillus cereus [12]
  MIC: 100 µg/mL (≈ 228 µM)
Staphylococcus aureus [13]
  MIC: 100 µg/mL (≈ 228 µM)
Candida albicans [14]
  diameter of the inhibition zone (DIZ): 16 mm
Aspergillus clavatus [15]
  diameter of the inhibition zone (DIZ): 20 mm
Aspergillus fumigatus [16]
  diameter of the inhibition zone (DIZ): 18 mm
Aspergillus niger [17]
  diameter of the inhibition zone (DIZ): 19 mm
Shigella flexneri [18]
  diameter of the inhibition zone (DIZ): 18 mm
Proteus vulgaris [19]
  diameter of the inhibition zone (DIZ): 17 mm
Salmonella typhi [20]
  diameter of the inhibition zone (DIZ): 16 mm
Klebsiella pneumoniae [21]
  diameter of the inhibition zone (DIZ): 20 mm
Pseudomonas aeruginosa [22]
  diameter of the inhibition zone (DIZ): 16 mm
Escherichia coli [23]
  diameter of the inhibition zone (DIZ): 16 mm
Bacillus cereus [24]
  diameter of the inhibition zone (DIZ): 16 mm
Staphylococcus aureus [25]
  diameter of the inhibition zone (DIZ): 17 mm

From ChEMBL document CHEMBL3045446, “In vitro antimicrobial and antimycobacterial activity of some chalcones and their derivatives” (2013)
